Data reported in patent US10351519B2, “Sulfamate derivative compounds, processes for preparing them and their uses” (BIO-PHARM SOLUTIONS CO., LTD., priority 2016, dated 2019).

How the values were obtained:
Assay type in all cases: in vivo
ICR mice = assay: Anti-epilepsy activity, MES test, mouse; conditions: for responders at 30 mg/kg / responders at 50 mg/kg / ED50: po; for responders at 30 mg/kg / responders at 50 mg/kg: read-out: MES test (po) efficacy %
Experimental: (§1) In the MES test (Ref., G. Villetti et al. Neuropharmacology 40 (2001) 866-878), an electrical stimulus (mice: 50 mA, 60 Hz, 0.2 sec, and rats: 150 mA, 60 Hz, 0.2 sec in the test animal) supplied by an 11A Shocker (IITC Life Science Company) was delivered through corneal electrodes. All mice or rats assigned to any electroshock at peak time were treated with each test compound sample which was dissolved in 30% PEG 400 or 20% tween 80 prepared by saline solvent applied orally before the test. […] Three doses of the test sample were administered orally to 9-18 animals (3-6 mice per dose) for evaluating the respective doses at which 50% of the animals were protected from seizure (ED50). The ED50 value (median effective dose) was calculated by Litchfield and Wicoxon log-probit method which is a dose-response relationship. Experimental animals, male ICR mice and male SD rats, were purchased from OrientBio, Samtako, or Nara Biotech, Korea, and housed in cages (4-5 mice or 3 rats per cage) for 4-5 days. The range of mice body weight was between 19 and 25 grams and range of rats body weight was between 100 and 130 grams.

Sprague-Dawley rats [1] = assay: Antiallodynic activity on Chung model (SNL, spinal nerve ligation); conditions: orally; for SNL efficacy %: 30 mg/kg
Description: Male Sprague-Dawley rats (100-130 g, Orient Bio, Korea) were habituated for 1 week before the experiment and allowed free access to food and water throughout the experimentation. Room temperature and humidity were maintained at 24±2 and 50±10%, respectively. The neuropathic surgery (SNL, Spinal nerve ligation) model was done as described in Kim and Chung (1992). Briefly, an animal was put under gaseous anesthesia with isoflurane. The left lumber spinal nerve L5 and L6 were isolated and tightly ligated with 6-0 silk thread. The wound muscle was closed with Catgut® chrom 3/0 thread and skin was closed with Dafilon 3/0 tread. Sham controls were prepared in the same manner with the spinal nerves exposed, but with no ligated L5 and L6 nerves. Preparation of the vehicle controls were identical to the group treated with compound, except for administration of vehicles without compound in the vehicle control group.
Tactile sensitivity (Mechanical allodynia) was evaluated using von Frey monofilaments before and after treatment, and animals were included in the study only if the withdrawal threshold value was less than 4 g. One week after surgery, SNL-operated animals, sham-operated animals and vehicle control animals were tested for tactile sensitivity with von Frey monofilaments 3 trials in each animal. All Animals were placed in a stainless steel mash chamber and habituated for 30 min in the test cage. The tactile sensitivity for the ipsilateral hind paw was measured using the up-and-down method (Dixon, 1980) with seven von Frey monofilaments (0.4, 1, 2, 4, 6, 8, and 15 g) in 3 trials. The tactile sensitivity test was followed by Dixon's method (Dixon, 1980). The 50% paw withdrawal threshold for each paw was calculated using the following formula: [Xth] log=[vFr] log+ky where [vFr] is the force of the last von Frey used, k=0.2249 which is the average interval (in log units) between the von Frey monofilaments, and y is a value that depends upon the pattern of withdrawal responses (Dixon, 1980).
All animals were fasted 18 h before the administration of the compounds. Antiallodynic effect of compounds were evaluated at the three dose, orally administrated in a volume of 5 ul/g, bw in a vehicle of 30% (v/v) PEG 400 or 20% (v/v) Tween 80. The test was performed at the peak time of efficacy after compound administration.
The relative values compared to the sham group (% control) were calculated and shown in Table 3, which show an antiallodynic effect of the test compounds on SNL model in rats.

Sprague-Dawley rats [2] = assay: Antiallodynic activity on Complete Freund's Adjuvant (CFA)-induced inflammatory pain model; conditions: intraperitoneally; for response vs control in vivo at 50 mg/kg: read-out: CFA-induced pain model efficacy %
Experimental: Male, Sprague-Dawley rats (210-250 g, Nara Bio, Korea) were habituated for 1 week before CFA injection and allowed free access to food and water throughout the experimentation. Room temperature and humidity were maintained at 24±2 and 50±10%, respectively.
CFA-induced inflammatory pain was induced by the procedure of Nagakura et al. (2003) and Gregory P. et al. (2010) with minor modifications. CFA (sigma, USA) was injected in the right plantar with a 100 ul volume under gaseous anesthesia with isoflurane. Sham controls were injected with 100 ul of saline and preparation of the vehicles without compound in the vehicle control group. Tactile sensitivity (Mechanical allodynia) was evaluated using von Frey monofilaments before and after treatment, and the animals were included in the study only if the withdrawal threshold value was less than 4 g. One week after surgery, CFA-infused treatment animals (n=4-6), sham-operated animals (n=12), and vehicle control animals (n=17) were tested for tactile sensitivity with von Frey monofilaments 3 trials for each animal. All Animals were placed in a stainless steel mesh chamber and habituated for 30 min in the test box. The tactile sensitivity for ipsilateral hind paw was measured using the up-and-down method (Dixon, 1980) with seven von Frey monofilaments (0.4, 1, 2, 4, 6, 8, and 15 g) to 3 trials. Tactile sensitivity test was followed by Dixon's method (Dixon, 1980). The 50% paw withdrawal threshold for each paw was calculated using the following formula: [Xth] log=[vFr] log+ky where [vFr] is the force of the last von Frey used, k=0.2249 which is the average interval (in log units) between the von Frey monofilaments, and y is a value that depends upon the pattern of withdrawal responses (Dixon, 1980).
Antiallodynic effect of compound was evaluated at the dose of 10-60 mg/kg (n=4-6), intraperitoneally administrated in a volume of 5 ul/g bw in a vehicle of 30% (v/v) PEG or 20% (v/v) Tween 80. The test was performed peak time of efficacy (0.5 or 1 hr) after compound administration.
The relative values compared to the sham (% control) were calculated and shown in Table 4, which show an antiallodynic effect of Compound 1 on CFA-induced pain model in rats.

SD rats = assay: Anti-epilepsy activity, MES test, rat
Experimental: as §1

## COCO[C@@H](c1c(F)cccc1Cl)[C@H](C)OS(N)(=O)=O [Example 61, (1S, 2S)-1-(2-chloro-6-fluorophenyl)-1-(methoxymethoxy)propan-2-yl sulfamate]
ICR mice
  MES test (po) Peak time: 2 h
  responders at 30 mg/kg: 33.3%

## COCO[C@@H](c1ccccc1Cl)[C@H](C)OS(=O)(=O)NC1CC1 [Example 78, (1S, 2S)-1-(2-chlorophenyl)-1-(methoxymethoxy)propan-2-yl cyclopropylsulfamate]
ICR mice
  MES test (po) Peak time: 4 h
  responders at 50 mg/kg: 25%

## COCO[C@@H](c1sc(Cl)nc1Cl)[C@H](C)OS(N)(=O)=O [Example 103, (1R,2S)-1-(2,4-dichlorothiazol-5-yl)-1-(methoxymethoxy)propan-2-yl sulfamate]
ICR mice
  MES test (po) Peak time: 2 h
  ED50: 52.7 mg/kg

## CC(C)NS(=O)(=O)O[C@H](C)[C@H](O)c1ccccc1Cl [Example 38, (1R, 2R)-1-(2-chlorophenyl)-1-hydroxypropan-2-yl isopropylsulfamate]
ICR mice
  MES test (po) Peak time: 2 h
  responders at 50 mg/kg: 50%

## C[C@H](OS(N)(=O)=O)[C@@H](O)c1sc(Cl)nc1Cl [Example 102, (1R,2S)-1-(2,4-dichlorothiazol-5-yl)-1-hydroxypropan-2-yl sulfamate]
ICR mice
  MES test (po) Peak time: 2 h
  ED50: 42.7 mg/kg

## CC[C@@H](OS(N)(=O)=O)[C@H](OCOC)c1ccccc1Cl [Example 71, (1R, 2R)-1-(2-chlorophenyl)-1-(methoxymethoxy)butan-2-yl sulfamate]
Sprague-Dawley rats [1]
  SNL Peak Time: 0.5 h
  SNL efficacy %: 30(31.9%)
Sprague-Dawley rats [2]; Rattus norvegicus, ip
  response vs control in vivo at 50 mg/kg: 41.9%
Sprague-Dawley rats [2]
  CFA-induced pain model Peak Time: 0.5 h

## CC[C@@H](OS(N)(=O)=O)[C@H](O)c1ccccc1Cl [Example 12, (1R, 2R)-1-(2-chlorophenyl)-1-hydroxybutan-2-yl sulfamate]
SD rats
  MES test (po) Peak time: 1 h
SD rats; 100 mg/kg
  MES test (po) efficacy %: 100%
Sprague-Dawley rats [2]; Rattus norvegicus, ip
  response vs control in vivo at 50 mg/kg: 21.9%
Sprague-Dawley rats [2]
  CFA-induced pain model Peak Time: 0.5 h

## CC[C@H](OS(N)(=O)=O)[C@@H](O)c1ccccc1Cl [Example 11, (1S, 2S)-1-(2-chlorophenyl)-1-hydroxybutan-2-yl sulfamate]
ICR mice
  MES test (po) Peak time: 2 h
  responders at 50 mg/kg: 25%
SD rats
  MES test (po) Peak time: 2 h
SD rats; 24 mg/kg
  MES test (po) efficacy %: 33.3%

## COCO[C@H](c1ccccc1Cl)[C@@H](C)OS(=O)(=O)NC1CC1 [Example 79, (1R, 2R)-1-(2-chlorophenyl)-1-(methoxymethoxy)propan-2-yl cyclopropylsulfamate]
ICR mice
  MES test (po) Peak time: 1 h
  responders at 50 mg/kg: 25%

## COCO[C@@H](c1ccccc1F)[C@H](C)OS(N)(=O)=O [Example 72, (1S, 2S)-1-(2-fluorophenyl)-1-(methoxymethoxy)propan-2-yl sulfamate]
Sprague-Dawley rats [2]; Rattus norvegicus, ip
  response vs control in vivo at 50 mg/kg: 25.9%
Sprague-Dawley rats [2]
  CFA-induced pain model Peak Time: 0.5 h

## COCO[C@@H](c1c(Cl)cccc1Cl)[C@H](C)OS(N)(=O)=O [Example 57, (1S, 2S)-1-(2,6-dichlorophenyl)-1-(methoxymethoxy)propan-2-yl sulfamate]
Sprague-Dawley rats [1]
  SNL Peak Time: 1 h
  SNL efficacy %: 30(26.3%)

## COCO[C@H](c1c(Cl)cccc1Cl)[C@@H](C)OS(N)(=O)=O [Example 58, (1R, 2R)-1-(2,6-dichlorophenyl)-1-(methoxymethoxy)propan-2-yl sulfamate]
ICR mice
  MES test (po) Peak time: 1 h
  ED50: 54.4 mg/kg
Sprague-Dawley rats [2]; Rattus norvegicus, ip
  response vs control in vivo at 50 mg/kg: 17.7%
Sprague-Dawley rats [2]
  CFA-induced pain model Peak Time: 0.5 h

## COCO[C@@H](c1ccccc1I)[C@H](C)OS(N)(=O)=O [Example 74, (1S, 2S)-1-(2-iodophenyl)-1-(methoxymethoxy)propan-2-yl sulfamate]
ICR mice
  MES test (po) Peak time: 0.5 h
  responders at 30 mg/kg: 33.3%
Sprague-Dawley rats [2]; Rattus norvegicus, ip
  response vs control in vivo at 50 mg/kg: 19.9%
Sprague-Dawley rats [2]
  CFA-induced pain model Peak Time: 0.5 h

## C[C@H](OS(N)(=O)=O)[C@@H](O)c1ccccc1F [Example 17, (1S, 2S)-1-(2-fluorophenyl)-1-hydroxypropan-2-yl sulfamate]
Sprague-Dawley rats [1]; Rattus norvegicus, po, at peak time
  ED50: 46.9 mg/kg
Sprague-Dawley rats [1]
  SNL Peak Time: 1 h
Sprague-Dawley rats [2]; Rattus norvegicus, ip, at peak time
  ED50: 48.7 mg/kg
Sprague-Dawley rats [2]
  CFA-induced pain model Peak Time: 0.5 h

## C[C@H](OS(N)(=O)=O)[C@@H](O)c1ccc(Cl)cc1Cl [Example 3, (1S, 2S)-1-(2,4-dichlorophenyl)-1-hydroxypropan-2-yl sulfamate]
SD rats
  MES test (po) Peak time: 4 h
SD rats; 20 mg/kg
  MES test (po) efficacy %: 16.6%

## CO[C@@H](c1ccccc1I)[C@H](C)OS(N)(=O)=O [Example 92, (1S,2S)-1-(2-iodophenyl)-1-methoxypropan-2-yl sulfamate]
Sprague-Dawley rats [2]; Rattus norvegicus, ip
  response vs control in vivo at 50 mg/kg: 31.8%
Sprague-Dawley rats [2]
  CFA-induced pain model Peak Time: 0.5 h

## CC(C)NS(=O)(=O)O[C@@H](C)[C@@H](O)c1ccccc1Cl [Example 37, (1S, 2S)-1-(2-chlorophenyl)-1-hydroxypropan-2-yl isopropylsulfamate]
SD rats
  MES test (po) Peak time: 2 h
SD rats; 10 mg/kg
  MES test (po) efficacy %: 16.6%

## COCO[C@@H](c1cccc(Cl)c1Cl)[C@H](C)OS(N)(=O)=O [Example 53, (1S, 2S)-1-(2,3-dichlorophenyl)-1-(methoxymethoxy)propan-2-yl sulfamate]
ICR mice
  MES test (po) Peak time: 2 h
  ED50: 67.8 mg/kg

## C[C@H](OS(N)(=O)=O)[C@@H](O)c1cccc(Cl)c1Cl [Example 9, (1S, 2S)-1-(2,3-dichlorophenyl)-1-hydroxypropan-2-yl sulfamate]
ICR mice
  MES test (po) Peak time: 4 h
  ED50: 61.8 mg/kg

## CC(C)[C@H](OS(N)(=O)=O)[C@@H](O)c1ccccc1Cl [Example 13, (1S, 2S)-1-(2-chlorophenyl)-1-hydroxy-3-methylbutan-2-yl sulfamate]
ICR mice
  MES test (po) Peak time: 1 h
  responders at 50 mg/kg: 25%

## CC(C)[C@@H](OS(N)(=O)=O)[C@H](O)c1ccccc1Cl [Example 14, (1R, 2R)-1-(2-chlorophenyl)-1-hydroxy-3-methylbutan-2-yl sulfamate]
ICR mice
  MES test (po) Peak time: 1 h
  responders at 50 mg/kg: 25%
Sprague-Dawley rats [2]; Rattus norvegicus, ip
  response vs control in vivo at 50 mg/kg: 18.4%
Sprague-Dawley rats [2]
  CFA-induced pain model Peak Time: 1 h
